From patent publication US6974794B1, “Hemoglobin-antioxidant conjugates” (Hemosol LP, priority 1999, dated 2005)

Assays:
erythrocytes = assay: Hemolysis of erythrocytes mediated by peroxyl radicals (AAPH); protection of RBCs against lysis; format: cell-based; details: for AUC, % of control: relative to the corresponding control without Trolox, CO-ligated
Description: Blood was collected into heparinized tubes and erythrocytes were separated by centrifugation and washed 3 times with 10 volumes of PBS, pH 7.4. During the last washing, erythrocytes were centrifuged at 1000×g for 10 minutes to obtain a consistently packed cell preparation. The assay for hemolysis mediated by peroxyl radicals was conducted by a modified method of Miki et al.,(M. Miki, H. Tamai, M. Mino, Y. Yamamoto and E. Niki., Arch. Biochem. Biophys. 258:373-380 (1987)). Equal volumes of a 30% suspension of fresh erythrocytes in PBS pH 7.4, test sample, and 300 mM 2,2;-azo-bis(2-amidinopropane dihydrochloride) (AAPH, a radical generator) were combined in order. Mixtures were prepared under CO gas and test hemoglobin concentration in the RBC assay suspension was 12-13 mg/ml. Mixtures were held at 37° C., and aliquots were diluted 20-fold in PBS and centrifuged at 1000×g for 10 minutes. As a measure of Hb released due to RBC lysis, the absorbances of supernatants were measured at 540 nm after conversion of all Hb to CN-metHb according to the method of Tentori (Meth. Enzymology 75:707 (1981)). Supernatant Hb levels were corrected for Hb added in the test samples.
The results for two products are presented graphically in FIG. 1, a plot of relative RBC lysis against time for the various products. Products analyzed were prepared as described for reaction #6 (Hb-Trolox B) and reaction #7 (Hb-Trolox A) in Table 1 of Example 1. […] Relative protection was also determined by comparison of areas under the curves (AUC) obtained by plotting RBC lysate absorbance versus time. AUC is determined by the time of onset, rate, and overall extend of RBC lysis. Lower AUC values indicate greater protection of RBCs against lysis.
Using the method described in Example 2, the anti-oxidant activities of the two conjugates were measured. Samples were CO-ligated and concentration of the conjugates and controls in the RBC assay suspension was 12 mg/mL.
Using the method described in Example 1, the anti-oxidant activity of the polyOR-Hb-TX was measured. Products tested included oxygen and CO-ligated polyOR-Hb (no treatment with TX or EDC), CO-ligated product reserved prior to oxygenation as described above, and oxygenated product. All products were present in the RBC lysis assay suspension at 11.7 mg/mL.
Using the method described in Example 1, the antioxidant activities of the polyOR-Hb-TX products prepared under deoxy conditions (Example 8) and CO conditions (Example 6) were measured. Samples were CO-ligated and concentration of the conjugates and controls in the RBC assay suspension was 12 mg/mL. An equal concentration of polyOR-Hb, as well as two concentrations of Trolox alone representing 1× and 0.5× its solubility limit in the test solution, were evaluated.

conscious rat = assay: Hemodynamic effect following 10% topload infusion in conscious rat; format: in vivo; details: for Pre-infusion HR / baseline MAP prior to infusion: conscious Sprague-Dawley rat, before infusion; for baseline MAP prior to infusion: four animals per group; for HR after infusion / MAP following infusion: 10% topload infusion of 7.7 g/dL solution in lactated Ringer's
Description: Male Sprague-Dawley rats (250-350 g) were anesthetized with isoflurane on the day of the experiment. The right femoral artery and vein were cannulated. After 1.5 hour recovery from surgery, conscious animals residing in a metabolic cages were infused with either of two solutions: oxygenated polyOR-TX prepared in Example 6 or polyOR-Hb (no TX-EDC treatment; both solutions were 7.7 g/dL in lactated Ringer's solution). Infusion volume was equal to 10% of the animal's estimated blood volume. Mean arterial blood pressure (MAP) and heart rate (HR) were recorded 30 minutes prior to infusion to establish baseline values, during infusion and for 2 hours following infusion (FIGS. 3 and 4). Four animals were tested in each of the two groups. The baseline MAP prior to infusion was 101±4 mm Hg (polyOR-Hb) and 110±3 mm Hg (polyOR-Hb-TX). […] Pre-infusion HR were 407±17 and 394±17 beats per minute (bpm) in the polyOR-Hb and polyOR-Hb-TX groups, respectively.

[1] = P50 measured with a Hemox-Analyzer; details: 37° C.
Description: Trolox was conjugated to polyOR-Hb under deoxy conditions to prepare a product with a high P50, more suitable for use as an HBOC. PolyOR-Hb and MES buffer were deoxygenated by standard means. 0.78 g Trolox was reacted with 0.60 g EDC in 4 mL of acetonitrile for 10-20 minutes at room temperature. This solution was added to 2.04 g polyOR-Hb in 200 mL 120 mM MES pH 7.0. Two identical additions were made after 4 and 21 hours. At 27 hours following the first addition, the reaction mixture was charged with CO gas, filtered, concentrated and dialyzed extensively against PBS.

[2] = Table 7, CO-ligated samples, 12 mg/mL in RBC assay suspension
[3] = Table 4, hemoglobin 0.20 mM (12-13 mg/ml) in RBC assay suspension, under CO, 37° C., bound Trolox 0.32 mM (A), 0.45 mM (B), lower AUC = greater protection
[4] = Table 8, 11.7 mg/mL in RBC lysis assay suspension

Compound: 1× Control: control product: polyOR-Hb reacted with EDC alone, no Trolox added, single addition
- AUC relative to AAPH control (%) (erythrocytes; [2]): 83%

Compound: 1× TX-EDC (Reaction A): polyOR-Hb conjugated with Trolox by a single addition of Trolox/EDC
- AUC relative to AAPH control (%) (erythrocytes; [2]): 27%
- AUC, % of control (erythrocytes; 12 mg/mL): 33%

Compound: 3× Control: control product: polyOR-Hb reacted with EDC alone, no Trolox added, three additions
- AUC relative to AAPH control (%) (erythrocytes; [2]): 69%

Compound: 3× TX-EDC (Reaction B): polyOR-Hb conjugated with Trolox by three additions of Trolox/EDC
- AUC, % of control (erythrocytes; 12 mg/mL): 3%

Compound: Cc1c(C)c2c(c(C)c1O)CCC(C)(C(=O)O)O2 (centres unmarked) [Free Trolox, 2,5,7,8-tetramethyl-2-carboxy-chroman-6-ol]
- AUC relative to AAPH control (%) (erythrocytes; Table 4, Trolox 0.50 mM, no hemoglobin): 88%
- AUC relative to AAPH control (%) (erythrocytes; Table 9, Trolox alone 0.26 mM (0.5× its solubility limit)): 87%
- AUC relative to AAPH control (%) (erythrocytes; Table 9, Trolox alone 0.52 mM (1× its solubility limit)): 70%

Compound: Free Hb (A): free (control) hemoglobin; product of the control reaction corresponding to Hb-Trolox A, no TX-EDC added
- AUC relative to AAPH control (%) (erythrocytes; [3]): 39%

Compound: Free Hb (B): free (control) hemoglobin; product of the control reaction corresponding to Hb-Trolox B, no TX-EDC added
- AUC relative to AAPH control (%) (erythrocytes; [3]): 35%

Compound: PolyOR-Hb (CO form): CO-ligated polyOR-Hb, no treatment with TX or EDC
- AUC relative to AAPH control (%) (erythrocytes; [4]): 47%

Compound: PolyOR-Hb (Oxy form): oxygen-ligated polyOR-Hb, no treatment with TX or EDC
- AUC relative to AAPH control (%) (erythrocytes; [4]): 39%

Compound: PolyOR-Hb-TX (CO form): CO-ligated product of Example 6 reserved prior to oxygenation
- AUC relative to AAPH control (%) (erythrocytes; [4]): 6%

Compound: PolyOR-Hb-TX (Oxy form): oxygenated product of Example 6
- AUC relative to AAPH control (%) (erythrocytes; [4]): 15%

Compound: PolyOR-Hb-TX (from Example 6): Trolox conjugate of o-raffinose polymerized hemoglobin, large scale, prepared under CO conditions
- Pre-infusion HR (conscious rat): 394±17 bpm
- baseline MAP prior to infusion (conscious rat): 110±3 mm Hg
- HR after infusion (conscious rat; conscious rat): 316±10 bpm
- MAP following infusion (conscious rat; conscious rat): 151±1 mm Hg
- Hemodynamic properties compared with polyOR-Hb (conscious rat; conscious rat, 10% topload infusion, result in words): did not alter the hemodynamic properties
- AUC relative to AAPH control (%) (erythrocytes; Table 9, CO form, 12 mg/mL): 0%
- P50 [1]: 16 mm Hg

Compound: PolyOR-Hb-TX (from Example 8): Trolox conjugated to polyOR-Hb under deoxy conditions
- AUC relative to AAPH control (%) (erythrocytes; Table 9, CO form, 12 mg/mL): 3%
- P50 [1]: 40 mm Hg

Compound: PolyOR-Hb: o-raffinose cross-linked / polymerized hemoglobin, no treatment with TX or EDC [reference compound]
- Pre-infusion HR (conscious rat): 407±17 bpm
- baseline MAP prior to infusion (conscious rat): 101±4 mm Hg
- HR after infusion (conscious rat; conscious rat): 345±16 bpm
- MAP following infusion (conscious rat; conscious rat): 142±7 mm Hg
- AUC relative to AAPH control (%) (erythrocytes; Table 9, CO form, 12 mg/mL): 28%
- P50 [1]: 41 mm Hg
